{"source": "paper PMC2600610", "about": "“Ir-LBP, an Ixodes ricinus Tick Salivary LTB4-Binding Lipocalin, Interferes with Host Neutrophil Function” (PLoS ONE, 2008)", "key": {"Ir-LBP [1]": {"molecular_target": "T1, Ir-LBP (Ixodes ricinus, UniProt B7ZDG7)", "T1 sequence (B7ZDG7 20-200 limits assumed)": "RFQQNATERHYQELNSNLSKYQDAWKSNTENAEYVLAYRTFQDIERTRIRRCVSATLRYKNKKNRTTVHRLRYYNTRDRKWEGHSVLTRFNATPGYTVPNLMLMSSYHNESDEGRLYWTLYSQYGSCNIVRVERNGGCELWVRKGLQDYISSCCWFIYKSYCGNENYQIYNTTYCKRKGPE", "experiment": "Competitive binding: inhibition of 3H-LTB4 binding to Ir-LBP by eicosanoids", "settings": "2 h; for decrease of the binding of 1 nM 3H-LTB4 to Ir-LBP: competitor at 10 µM", "experimental": "The specificity of this binding was then evaluated by incubating Ir-LBP with increasing concentrations of different eicosanoids (LTB4, LTD4, LTC4, LTE4, 12(R)-hydroxyeicosatetraenoic acid (HETE), 15(S)-hydroxyperoxyeicosatetraenoic acid (HpETE), LTA4 methyl ester and 5 (S), 6 (R)-Lipoxin A4) in the presence of a fixed concentration of ^3H-LTB4 (Figure 1B). […] On the other hand, only at a very high concentration of 10 µM were LTD4, LTE4 and 12(R)-HETE able to decrease the binding of 1 nM of ^3H-LTB4 to Ir-LBP by approximately 30%. […] Furthermore, this interaction is reversible. The addition of an excess of cold LTB4 (10 µM) for 2 h displaces the binding between Ir-LBP and 1 nM of ^3H-LTB4 (data not shown). […] This binding may only be displaced by very high concentrations (10 µM versus nM) of eicosanoid analogs.\n(§1) The dissociation constant was measured in PBS (pH 7.4) using purified Ir-LBP and an increasing amount of ^3H-LTB4. Non-specific binding was determined by measuring bound radioactivity in the absence of Ir-LBP. Protein precipitation with polyethylene glycol 8000 was used to separate bound from free histamine. Protein-bound radioactivity was determined with a Wallac 1409 scintillation counter. Saturation experiments were analyzed by non-linear regression using the curve fitting program GraphPad Prism® (GraphPad software, San Diego, CA, U.S.A.), B = (Bmax [F])/KD+[F]), where B is the amount of bound ligand at equilibrium, Bmax is the maximum number of binding sites, [F] is the concentration of free ligand and KD is the ligand dissociation constant. Competitive binding assays were performed using purified Ir-LBP with 1 nM of ^3H-LTB4 and an increasing amount of unlabelled competitor for 2 h."}, "neutrophils [2]": {"test_system": "neutrophils", "design": "method as in PMID 12770944, PMID 10588632", "settings": "BLT1 antagonists; cited from earlier work"}, "Human neutrophils": {"test_system": "Human neutrophils", "experiment": "Neutrophil apoptosis assay (Annexin-V-FITC/PI, flow cytometry)", "type": "cell-based", "settings": "LTB4 10^-7 M, 24 h of culture", "experimental": "Human blood neutrophils were obtained from buffy coats (Transfusion Center, Liege, Belgium). Neutrophils were separated from mononuclear cells by density centrifugation (Histopaque; Sigma-Aldrich). Contaminating erythrocytes were removed from the neutrophil fraction by hypotonic lysis. Neutrophil purity, determined by counting cytospin preparations stained with Diff-Quick (Dade Behring), was always >95%. Neutrophils were cultured at a density of 2×10^6 cells/ml in RPMI-1640 supplemented with 1% glutamine, 10% FCS, 50 µg/ml streptomycin, and 50 IU/ml penicillin (all from Gibco BRL). Neutrophils were cultured in the absence or presence of 10^−7 M LTB4 (Sigma-Aldrich) and/or 0.2–2 µg/ml Ir-LBP.\nApoptosis was assessed by staining with Annexin-V-FITC and propidium iodide (PI) using the Annexin-V-FLUOS staining kit (Roche), following the manufacturer's recommendations. Flow cytometry analyses were performed with a FACSAria™ (BD Biosciences)."}, "Ir-LBP [3]": {"molecular_target": "T1, Ir-LBP", "experiment": "Saturation curve and Scatchard analysis for LTB4 binding to Ir-LBP (Figure 1A), ligand as substance", "settings": "saturation curve, 3H-LTB4"}, "BLT1": {"molecular_target": "BLT1", "design": "method as in PMID 6097945, PMID 6323613, PMID 2823316", "settings": "read-out: Kd of BLT1 for LTB4; cited from earlier work"}, "BLT2": {"molecular_target": "BLT2", "design": "method as in PMID 10934230", "settings": "read-out: Kd of BLT2 for LTB4; cited from earlier work"}, "R53T": {"test_system": "T2, R53T", "T2 construct": "pCDNA3.1/V5-His-TOPO, expressed in 293T cells", "experiment": "Saturation binding of ^3H-LTB4 (PBS pH 7.4, PEG 8000 precipitation) to wild-type and mutant Ir-LBP expressed in 293T cells.", "settings": "SD", "from_the_text": "(§2) In order to determine which amino acids of Ir-LBP are involved in the binding to LTB4, we produced mutants designed on the basis of the dynamic model established in silico. […] For the interaction with the second hydroxyl group, the residue selected to be mutated is Arg 73. The choice was made on this residue because Glu 188 is conserved for all LIRs and should thus not be as specific as Arg 73; furthermore, Arg 53 is bridged to Arg 73 by an aspartic residue from the loop corresponding to the Ω loop in Ra-HBP2. The two hydroxyl groups and the two Arg bridged by Asp Ω could form an interacting network, further stabilizing the binding with LTB4. Two single mutants were therefore produced by replacing Arg 53 with threonine (R53T) and Arg 73 with alanine (R73A). A double mutant (R53T/R73A) was also produced by combining the 2 substitutions of the single mutants. A null mutant was also constructed by replacing serine 124 with threonine (S124T). […] Therefore, the affinity of this mutant for LTB4 should not be affected. These mutants and “wild type” Ir-LBP were expressed in 293T cells, and analyzed to determine their dissociation constant for LTB4.\n(§3) Site-directed mutagenesis of Ir-LBP in pCDNA3.1/V5-His-TOPO\n(§4) Subconfluent 293T cells in 35-mm diameter wells (Orange Scientific) were transfected with […] plasmid DNA and […] Fugene 6 (Roche Biochemicals) in Dulbecco's modified Eagle's medium (DMEM, Invitrogen) without FCS. The medium was harvested after 72 h. Pooled supernatants were cleared by centrifugation, concentrated 10-fold by filtration on 10000 NMWL membranes (Millipore), ultracentrifuged at 140,000 g before use, and finally stored at −80°C. Concentrated culture supernatants were analyzed by western blotting on a Hybond ECL membrane (GE healthcare) using an anti-V5 primary antibody (Invitrogen), an IgHRP conjugate as secondary antibody and the ECL detection reagent (GE healthcare) according to the manufacturer's instructions. The coding regions of Ir-LBP were amplified by PCR (94°C for 30 s, 56°C for 30 s, 72°C for 1 min.; 30 cycles) using ExTaq DNA Polymerase (Taqara). […]\nas §1, with “Protein precipitation with polyethylene glycol 8000 was used to separate bound from free histamine.” left out, “Competitive binding assays were performed using purified Ir-LBP with 1 nM of ^3H-LTB4 and an increasing amount of unlabelled competitor for 2 h.” left out"}, "R73A": {"test_system": "T3, R73A", "T3 construct": "pCDNA3.1/V5-His-TOPO, expressed in 293T cells", "experiment": "Saturation binding of ^3H-LTB4 (PBS pH 7.4, PEG 8000 precipitation) to wild-type and mutant Ir-LBP expressed in 293T cells.", "settings": "SD", "from_the_text": "as §2, §3, §4\nas §1, with “Protein precipitation with polyethylene glycol 8000 was used to separate bound from free histamine.” left out, “Competitive binding assays were performed using purified Ir-LBP with 1 nM of ^3H-LTB4 and an increasing amount of unlabelled competitor for 2 h.” left out"}, "R53T/R73A": {"test_system": "T4, R53T/R73A", "T4 construct": "pCDNA3.1/V5-His-TOPO, expressed in 293T cells", "experiment": "Saturation binding of ^3H-LTB4 (PBS pH 7.4, PEG 8000 precipitation) to wild-type and mutant Ir-LBP expressed in 293T cells.", "settings": "SD", "from_the_text": "as §2, §3, §4\nas §1, with “Protein precipitation with polyethylene glycol 8000 was used to separate bound from free histamine.” left out, “Competitive binding assays were performed using purified Ir-LBP with 1 nM of ^3H-LTB4 and an increasing amount of unlabelled competitor for 2 h.” left out"}, "S124T": {"test_system": "T5, S124T", "T5 construct": "pCDNA3.1/V5-His-TOPO, expressed in 293T cells", "experiment": "Saturation binding of ^3H-LTB4 (PBS pH 7.4, PEG 8000 precipitation) to wild-type and mutant Ir-LBP expressed in 293T cells.", "settings": "SD", "from_the_text": "as §2, §3, §4\nas §1, with “Protein precipitation with polyethylene glycol 8000 was used to separate bound from free histamine.” left out, “Competitive binding assays were performed using purified Ir-LBP with 1 nM of ^3H-LTB4 and an increasing amount of unlabelled competitor for 2 h.” left out"}, "neutrophils [4]": {"test_system": "neutrophils", "design": "method as in PMID 9261334", "settings": "BLT1 and BLT2 antagonist; cited from earlier work"}}, "data": [{"compound": "CCCCC/C=C\\C\\C=C/C=C/C=C/[C@@H](SC[C@H](N)C(=O)O)[C@@H](O)CCCC(=O)O", "note": "[LTE4]", "values": [{"measurement": "decrease of the binding of 1 nM 3H-LTB4 to Ir-LBP", "setting": "Ir-LBP [1]", "result": "approximately 30%"}]}, {"compound": "CCCCC[C@@H](/C=C/C=C\\C/C=C\\C/C=C\\CCCC(=O)O)OO", "note": "[15(S)-HpETE, 15(S)-hydroxyperoxyeicosatetraenoic acid]", "values": [{"measurement": "decrease of the binding of 1 nM 3H-LTB4 to Ir-LBP", "setting": "Ir-LBP [1]", "result": "unable to compete"}]}, {"compound": "O=C(O)C1(c2ccc3c(c2)OC[C@H](Cc2ccc(-c4ccccc4)cc2)[C@H]3O)CCCC1", "note": "[CP-105696]", "values": [{"measurement": "inhibition of the apoptosis delay induced by LTB4", "setting": "neutrophils [2]", "result": "capable of inhibiting"}]}, {"compound": "CCCCC/C=C\\C\\C=C/C=C/C=C/[C@@H]1O[C@H]1CCCC(=O)OC", "note": "[LTA4 methyl ester]", "values": [{"measurement": "decrease of the binding of 1 nM 3H-LTB4 to Ir-LBP", "setting": "Ir-LBP [1]", "result": "unable to compete"}]}, {"compound": "CCCCC[C@H](O)/C=C/C=C\\C=C\\C=C\\[C@@H](O)[C@@H](O)CCCC(=O)O", "note": "[5(S), 6(R)-Lipoxin A4, 5 (S), 6 (R)-Lipoxin A4]", "values": [{"measurement": "decrease of the binding of 1 nM 3H-LTB4 to Ir-LBP", "setting": "Ir-LBP [1]", "result": "unable to compete"}]}, {"compound": "CCCCC/C=C\\C\\C=C/C=C/C=C/[C@@H](SC[C@H](NC(=O)CC[C@H](N)C(=O)O)C(=O)NCC(=O)O)[C@@H](O)CCCC(=O)O", "note": "[LTC4]", "values": [{"measurement": "decrease of the binding of 1 nM 3H-LTB4 to Ir-LBP", "setting": "Ir-LBP [1]", "result": "unable to compete"}]}, {"compound": "CCCCC/C=C\\C[C@@H](O)/C=C/C=C/C=C\\[C@@H](O)CCCC(=O)O", "note": "[LTB4, Leukotriene B4]", "values": [{"measurement": "apoptosis levels versus untreated controls", "setting": "Human neutrophils", "result": "significantly lower"}, {"measurement": "Kd", "setting": "Ir-LBP [3]", "result": 0.59, "unit": "nM"}, {"measurement": "IC50", "setting": "Ir-LBP [1]; 1 nM 3H-LTB4, unlabelled competitor", "result": 5.7, "unit": "nM"}, {"measurement": "Kd", "setting": "BLT1", "result": "~1", "unit": "nM"}, {"measurement": "Kd", "setting": "BLT2", "result": "~23", "unit": "nM"}]}, {"compound": "CCCCC/C=C\\C[C@@H](O)/C=C/C=C/C=C\\[C@@H](O)CCCC(=O)O", "note": "[^3H-LTB4, tritiated leukotriene B4]", "values": [{"measurement": "Kd", "setting": "R53T", "result": 0.43, "unit": "nM"}, {"measurement": "Kd", "setting": "R73A", "result": 0.87, "unit": "nM"}, {"measurement": "Kd", "setting": "R53T/R73A", "result": 4.23, "unit": "nM"}, {"measurement": "Kd", "setting": "S124T", "result": 0.45, "unit": "nM"}]}, {"compound": "CCCCC/C=C\\C[C@@H](O)/C=C/C=C\\C/C=C\\CCCC(=O)O", "note": "[12(R)-HETE, 12(R)-hydroxyeicosatetraenoic acid]", "values": [{"measurement": "decrease of the binding of 1 nM 3H-LTB4 to Ir-LBP", "setting": "Ir-LBP [1]", "result": "approximately 30%"}]}, {"compound": "CCCCC/C=C\\C\\C=C/C=C/C=C/[C@@H](SC[C@H](N)C(=O)NCC(=O)O)[C@@H](O)CCCC(=O)O", "note": "[LTD4]", "values": [{"measurement": "decrease of the binding of 1 nM 3H-LTB4 to Ir-LBP", "setting": "Ir-LBP [1]", "result": "approximately 30%"}]}, {"compound": "COc1ccc(CCCCCCCCOc2ccc(C[S+]([O-])c3cccc(N)c3)nc2/C=C/C(=O)[O-])cc1.[Li+]", "note": "(stereo not shown) [SB201146]", "values": [{"measurement": "inhibition of the apoptosis delay induced by LTB4", "setting": "neutrophils [2]", "result": "capable of inhibiting"}]}, {"compound": "COc1ccc(/C=C/CCCCOc2cccc(OCCCCC(=O)O)c2CCC(=O)O)cc1", "note": "[ONO-4057]", "values": [{"measurement": "inhibition of endothelial transmigration of neutrophils", "setting": "neutrophils [4]", "result": "totally inhibits"}]}]}
